One data set deals with T1, HBV core protein (UniProt P03146).
T1 construct: fused on or other part: BODIPY-FL maleimide label on the C-terminal Cys150
In words: Biochemical capsid assembly assay (fluorescence quenching). The arrangement: species or system hepatitis B virus. Conditions: read-out: Assembly Activity (IC50); BODIPY-FL labelled core protein, 300 μM NaCl, read 6 min after start. In short, it runs like this:
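Assembly-induced fluorescence quenching (477/525 nm) was measured 6 min after NaCl addition ([…]), against 2.5 M and 0 M NaCl controls. The labelled C150 core dimer (truncated at 149) at 1.0-2.0 μM in HEPES pH 7.5 was tested with eight half-log compound dilutions, top 100, 31.6 or 10 μM. EC50 was obtained by non-linear fit from triplicates run three times.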

The nature of data set [1]: Cell viability assay (AlamarBlue) in HepAD38 cells. Particulars: human. (In general: The colour change of resazurin is a common sign of viable cells or microbes.)
A further data set has as its system HBV. Nature of the data set: Determination of HBV DNA from the supernatants of HepAD38 cells (anti-HBV activity). It counts as cell-based, hepatitis B virus. Conditions: Hepatitis B virus, 144 h; HBV DNA in HepAD38 supernatant, day 6, qPCR; read-out: Cell Activity (EC50). In short, it runs like this: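 Supernatant viral DNA was measured by LightCycler qPCR, calibrated with pCH-9/3091 plasmid, 6 days after tetracycline-free HepAD38 cultures received half-log serial compound dilutions; untreated and tetracycline-treated cells served as controls; EC50 was fitted by non-linear regression.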
For orientation: Quantitative PCR measures a nucleic acid by following its amplification.

The text below walks through data of patent US11236087B2, “Highly active pyrazolo-piperidine substituted indole-2-carboxamides active against the hepatitis B virus (HBV)” (AiCuris GmbH & Co. KG, priority 2017, dated 2022).

One may read the IC50 as the concentration that gives 50% inhibition. One may read the CC50 as the concentration that lowers cell viability or growth by half. A low value points to greater toxicity to the cells. A word on the EC50: it is the concentration giving half of the maximal effect.

T1 sequence (P03146 whole entry, looked up, the tested form may be a part): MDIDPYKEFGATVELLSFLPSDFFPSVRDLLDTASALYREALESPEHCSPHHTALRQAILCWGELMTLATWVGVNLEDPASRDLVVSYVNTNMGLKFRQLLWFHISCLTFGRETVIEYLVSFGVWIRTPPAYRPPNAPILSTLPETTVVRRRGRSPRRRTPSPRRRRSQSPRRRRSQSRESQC

For `O=C(c1cc2ccccc2[nH]1)N1CCc2[nH]nc(C(=O)N3CCS(=O)(=O)CC3)c2C1` [Example 158, 4-[5-(1H-indole-2-carbonyl)-1H,4H,5H,6H,7H-pyrazolo[4,3-c]pyridine-3-carbonyl]-1lambda6-thiomorpholine-1,1-dione], the IC50 on HBV core protein was under 100 µM. The CC50 at 6 days in data set [1] is over 10 µM. In the data set with HBV, the EC50 lay within 1 to 25 µM.
For `O=C(c1cc2ccccc2[nH]1)N1CCc2[nH]nc(C(=O)N3CCSCC3)c2C1` [Example 159, 2-[3-(thiomorpholine-4-carbonyl)-1H,4H,5H,6H,7H-pyrazolo[4,3-c]pyridine-5-carbonyl]-1H-indole] the same measures were under 5 µM, over 10 µM and under 1 µM.
`COC1CCN(C(=O)c2n[nH]c3c2CN(C(=O)c2cc4ccccc4[nH]2)CC3)CC1` [Example 160, 2-[3-(4-methoxypiperidine-1-carbonyl)-1H,4H,5H,6H,7H-pyrazolo[4,3-c]pyridine-5-carbonyl]-1H-indole]: the IC50 on HBV core protein is under 100 µM. In addition, the CC50 at 6 days in data set [1] is over 10 µM. Also, in the data set with HBV, the EC50 was under 1 µM.
With `O=C(c1cc2ccccc2[nH]1)N1CCc2[nH]nc(C(=O)N3CCC[C@@H](O)C3)c2C1` [Example 161, (3R)-1-[5-(1H-indole-2-carbonyl)-1H,4H,5H,6H,7H-pyrazolo[4,3-c]pyridine-3-carbonyl]piperidin-3-ol], the IC50 on HBV core protein was in the range of 5 to 10 µM. The molecule also gave a CC50 at 6 days in data set [1] of over 10 µM. The EC50 in the data set with HBV was under 1 µM.
In the case of `O=C(c1cc2ccccc2[nH]1)N1CCc2[nH]nc(C(=O)N3CCC[C@H](O)C3)c2C1` [Example 162, (3S)-1-[5-(1H-indole-2-carbonyl)-1H,4H,5H,6H,7H-pyrazolo[4,3-c]pyridine-3-carbonyl]piperidin-3-ol], on HBV core protein, the IC50 was under 100 µM. Further, the CC50 at 6 days in data set [1] was over 10 µM. In the data set on HBV, the EC50 lay in the range of 1 to 25 µM.
For `CC(=O)N1CCN(C(=O)c2n[nH]c3c2CN(C(=O)c2cc4ccccc4[nH]2)CC3)C(C)(C)C1` [Example 163, 1-{4-[5-(1H-indole-2-carbonyl)-1H,4H,5H,6H,7H-pyrazolo[4,3-c]pyridine-3-carbonyl]-3,3-dimethylpiperazin-1-yl}ethan-1-one], the IC50 on HBV core protein was under 100 µM. The CC50 at 6 days in data set [1] was over 10 µM. Besides, in the data set with HBV, the concentration for a half-maximal effect (EC50) was 1 to 25 µM.
For the molecule `CC1(C)CCCCN1C(=O)c1n[nH]c2c1CN(C(=O)c1cc3ccccc3[nH]1)CC2` [Example 165, 2-[3-(2,2-dimethylpiperidine-1-carbonyl)-1H,4H,5H,6H,7H-pyrazolo[4,3-c]pyridine-5-carbonyl]-1H-indole], on HBV core protein, the IC50 lay in the range of 5 to 10 µM. The molecule further returned a CC50 at 6 days in data set [1] of over 10 µM. The EC50 in the data set on HBV was under 1 µM.
Take `COCC1(N(C)C(=O)c2n[nH]c3c2CN(C(=O)c2cc4ccc(F)cc4[nH]2)CC3)CC1` [Example 166, 5-(6-fluoro-1H-indole-2-carbonyl)-N-[1-(methoxymethyl)cyclopropyl]-N-methyl-1H,4H,5H,6H,7H-pyrazolo[4,3-c]pyridine-3-carboxamide]: at HBV core protein, the IC50 was under 5 µM. For the same molecule, the CC50 at 6 days in data set [1] is over 10 µM. In the data set on HBV, the EC50 is under 1 µM.
Consider `O=C(c1cc2ccccc2[nH]1)N1CCc2[nH]nc(C3CCC3)c2C1` [Example 167, 2-{3-cyclobutyl-1H,4H,5H,6H,7H-pyrazolo[4,3-c]pyridine-5-carbonyl}-1H-indole], for which, on HBV core protein, the IC50 was under 5 µM. In data set [1], this molecule had a CC50 at 6 days of over 10 µM. Also, the EC50 in the data set on HBV is under 1 µM.
In the case of `CN(C(=O)c1n[nH]c2c1CN(C(=O)c1cc3ccccc3[nH]1)CC2)C1CCCCC1` [Example 170, N-cyclohexyl-5-(1H-indole-2-carbonyl)-N-methyl-1H,4H,5H,6H,7H-pyrazolo[4,3-c]pyridine-3-carboxamide], the IC50 at HBV core protein lay in the range of 5 to 10 µM. The 50% cytotoxic concentration (CC50) at 6 days in data set [1] was over 10 µM. Moreover, the EC50 in the data set with HBV lay within 1 to 25 µM.
As to `CN(CC(=O)OC(C)(C)C)C(=O)c1n[nH]c2c1CN(C(=O)c1cc3ccccc3[nH]1)CC2` [Example 171, tert-butyl 2-{1-[5-(1H-indole-2-carbonyl)-1H,4H,5H,6H,7H-pyrazolo[4,3-c]pyridin-3-yl]-N-methylformamido}acetate], at HBV core protein, the IC50 was under 100 µM. For the same molecule, the CC50 at 6 days in data set [1] was over 10 µM. In addition, the EC50 in the data set with HBV fell in the range of 1 to 25 µM.
For `CN(CCO)C(=O)c1n[nH]c2c1CN(C(=O)c1cc3c(C(F)F)ccc(F)c3[nH]1)CC2` [Example 172, 5-[4-(difluoromethyl)-7-fluoro-1H-indole-2-carbonyl]-N-(2-hydroxyethyl)-N-methyl-1H,4H,5H,6H,7H-pyrazolo[4,3-c]pyridine-3-carboxamide], at HBV core protein, the IC50 is under 5 µM. Moreover, in data set [1], the CC50 at 6 days was over 10 µM. Moreover, the EC50 with HBV fell in the range of 1 to 25 µM.
The like results for `CN(C(=O)c1n[nH]c2c1CN(C(=O)c1cc3ccccc3[nH]1)CC2)[C@H]1CC[C@H](O)CC1` [Example 173, 5-(1H-indole-2-carbonyl)-N-methyl-N-[(1r,4r)-4-hydroxycyclohexyl]-1H,4H,5H,6H,7H-pyrazolo[4,3-c]pyridine-3-carboxamide] were, in that order, under 100 µM, over 10 µM and 1 to 25 µM.
Turning to `CN(C(=O)c1n[nH]c2c1CN(C(=O)c1cc3ccccc3[nH]1)CC2)[C@H]1CC[C@@H](O)CC1` [Example 174, 5-(1H-indole-2-carbonyl)-N-methyl-N-[(1s,4s)-4-hydroxycyclohexyl]-1H,4H,5H,6H,7H-pyrazolo[4,3-c]pyridine-3-carboxamide], the IC50 on HBV core protein was under 100 µM. In data set [1], this molecule registered a CC50 at 6 days of over 10 µM. The EC50 in the data set with HBV was in the range of 1 to 25 µM.
The like results for `O=C(c1cc2ccccc2[nH]1)N1CCc2[nH]nc(C(=O)N3C[C@@H]4[C@@H](CO)[C@@H]4C3)c2C1` [Example 175, [(±)-3-[5-(1H-indole-2-carbonyl)-1H,4H,5H,6H,7H-pyrazolo[4,3-c]pyridine-3-carbonyl]-3-azabicyclo[3.1.0]hexan-6-yl]methanol] were, in that order, 5 to 10 µM, over 10 µM and 1 to 25 µM.
In the case of `O=C(c1cc2ccccc2[nH]1)N1CCc2[nH]nc(C(=O)N3C[C@@H]4[C@@H](O)[C@@H]4C3)c2C1` [Example 176, (±)-3-[5-(1H-indole-2-carbonyl)-1H,4H,5H,6H,7H-pyrazolo[4,3-c]pyridine-3-carbonyl]-3-azabicyclo[3.1.0]hexan-6-ol], on HBV core protein, the IC50 is 5 to 10 µM. This molecule had a CC50 at 6 days in data set [1] of over 10 µM. Moreover, the EC50 with HBV was 1 to 25 µM.
`CN(Cc1ccccc1)C(=O)c1n[nH]c2c1CN(C(=O)c1cc3ccccc3[nH]1)CC2` [Example 178, N-benzyl-5-(1H-indole-2-carbonyl)-N-methyl-1H4H,5H,6H,7H-pyrazolo[4,3-c]pyridine-3-carboxamide]: the IC50 at HBV core protein is under 5 µM. In addition, the CC50 at 6 days in data set [1] is over 10 µM. The 50% effective concentration (EC50) in the data set with HBV was under 1 µM.
Turning to `O=C(c1cc2ccccc2[nH]1)N1CCc2[nH]nc(C(=O)N3CCC[C@H]3CO)c2C1` [Example 180, [(2S)-1-[5-(1H-indole-2-carbonyl)-1H,4H,5H,6H,7H-pyrazolo[4,3-c]pyridine-3-carbonyl]pyrrolidin-2-yl]methanol], the IC50 at HBV core protein is under 100 µM. Further, the cytotoxic concentration (CC50) at 6 days in data set [1] was over 10 µM. Further, the EC50 in the data set with HBV lay within 1 to 25 µM.
